{"source": "patent US10660874B2", "about": "“Ecteinamycin, compositions and uses thereof” (Wisconsin Alumni Research Foundation, priority 2014, dated 2020)", "key": {"[1]": {"system": "S. cerevisiae deletion mutants", "assay": "Chemical genomic analysis in yeast deletion mutants", "assay_type": "cell-based, Saccharomyces cerevisiae", "conditions": "250 μg/mL; for Fold Change in abundance relative to solvent control: 48 h", "protocol": "A chemical genomic analysis of ecteinamycin was performed as described previously (Fling, S.-Y.; Sofiyev, V.; Schneiderman, J.; Hirschfeld, A. F.; Victor, R. E.; Woods, K.; Piotrowski, J. S.; Deshpande, R.; Li, S. C.; de Voogd, N. J.; Myers, C. L.; Boone, C.; Andersen, R. J.; Turvey, S. E. ACS Chem. Biol. 2014, 9, 247-257.). The optimal inhibitory concentration of ecteinamycin for chemical genomic profiling (70-80% growth versus solvent control in YP-Glucose media after 24 h of growth) was determined. A concentration of 250 μg/mL inhibited growth within this range. Two hundred μL cultures of a pooled, genome wide collection of S. cerevisiae deletion mutants with 250 μg/mL ecteinamycin or a DMSO control were grown in triplicate for 48 h at 30° C. The genomic DNA was extracted using the Epicentre MasterPure™ Yeast DNA purification kit. Mutant-specific molecular barcodes were amplified with specially designed multiplex primers containing adapters for Illumina sequencing. The barcodes were sequenced using an Illumina HiSeq2500 Rapid Run platform. Three replicates of each condition (ecteinamycin vs. DMSO) were sequenced. The barcode counts for each yeast deletion mutant in the presence of ecteinamycin were normalized against the DMSO control conditions to generate a Z-score to define sensitivity or resistance of individual strains (the chemical genomic profile). In addition, differential abundance analysis was calculated for each mutant's response to the ecteinamycin versus DMSO using edgeR. The mutants with very low counts (<5) were filtered out before using the edgeR package (version 3.4.2) to calculate an adjusted P-value and log fold change for each mutant. A Bonferroni corrected hypergeometric distribution test was used to search for significant enrichment of GO terms among the top sensitive and resistant deletion mutants with a P-value less than 0.0001.^42 The chemical genomic profile of ecteinamycin was compared against existing chemical genomic datasets by Pearson correlation.\nIn parallel, chemical genomic profiling with the yeast, Saccharomyces cerevisiae, was used to investigate the mechanism of action of ecteinamycin. This method has been used for determining the mechanism of action and molecular target for many bioactive compounds, including natural products. Ecteinamcyin was screened against over four thousand deletion mutant yeast strains, genomic DNA was extracted, and mutant-specific DNA barcodes were amplified and sequenced by Illumina sequencing. Ecteinamycin sensitive and resistant mutants were determined by quantification of DNA-barcodes, providing a chemical genomic profile, which was used to evaluate the mechanism of action."}, "[2]": {"assay": "Pharmacokinetic study in mice, ecteinamycin in plasma", "assay_type": "in vivo", "conditions": "female, FVB, mouse, oral 5 mg/kg vs retro-orbital IV 2.5 mg/kg, dose adjusted", "protocol": "An Agilent 1100 LCMS system (ESI-MS positive mode) with a Phenomenex Kinetix C18 column (100×4.6 mm, 2.6 μm) at a flow rate of 0.5 mL/min was used for all analysis. The gradient was from 75% MeOH/25% 1 mM ammonium acetate in H2O to 93% MeOH/7% 1 mM ammonium acetate in H2O in 11 mins, then 93% MeOH/7% 1 mM ammonium acetate in H2O to 100% MeOH for 0.1 min and holding 100% MeOH for 3.9 mins.\nA standard curve was constructed using known concentrations of ecteinamycin (1000, 500, 250, 125, 62.50, 31.25, 15.625, 7.8125, 3.90625 ng/mL) in blank human plasma. Linear regression analysis was performed on the peak areas, and the resulting linear equation was used to calculate the ecteinamycin concentrations of quality control (QC) standards of ecteinamycin in human plasma (800, 200, 25, 12.5 ng/mL). The limit of detection was determined to be 31.25 ng/mL, and the limit of quantification was determined to be 62.50 ng/mL.\nEight-to-nine-week-old FVB female mice weighing 20.5 to 25.6 g were used for all studies. […]\nEcteinamycin was formulated with polyethylene glycol (PEG) 300, 25 mM Tris (1:1), pH 8.9. […] Sample quantitation was determined by weighted (R^2) linear regression using a 9-point curve. […] The % oral bioavailability was calculated from the concentration of ecteinamycin (adjusted for dose) in plasma between oral and IV dose: [ecteinamycinoral]/[ecteinamycinIV]×100. […]"}}}
{"smiles": "C=C1OC(=O)C(C(=O)CC2OC(C(C)C(O)C(CC)C(=O)C(C)(O)C3CCC(CC)(C4CCC(O)(C(C)OC)C(C)O4)O3)C(C)CC2C)=C1O", "note": "(centres unmarked) [ecteinamycin]", "values": [{"measurement": "growth versus solvent control", "setting": "[1]; YP-Glucose media, 24 h", "result": "70-80%"}, {"measurement": "Fold Change in abundance relative to solvent control", "setting": "[1]; APL4 deletion mutant (sensitive)", "result": 0.076}, {"measurement": "Fold Change in abundance relative to solvent control", "setting": "[1]; APM2 deletion mutant (sensitive)", "result": 0.037}, {"measurement": "Fold Change in abundance relative to solvent control", "setting": "[1]; DRS2 deletion mutant (sensitive)", "result": 0.040}, {"measurement": "Fold Change in abundance relative to solvent control", "setting": "[1]; EGT2 deletion mutant (resistant)", "result": 3.564}, {"measurement": "Fold Change in abundance relative to solvent control", "setting": "[1]; HAL9 deletion mutant (resistant)", "result": 3.379}, {"measurement": "Fold Change in abundance relative to solvent control", "setting": "[1]; IRC25 deletion mutant (resistant)", "result": 3.732}, {"measurement": "Fold Change in abundance relative to solvent control", "setting": "[1]; MRH1 deletion mutant (resistant)", "result": 4.129}, {"measurement": "Fold Change in abundance relative to solvent control", "setting": "[1]; MSS11 deletion mutant (resistant)", "result": 2.585}, {"measurement": "Fold Change in abundance relative to solvent control", "setting": "[1]; PAR32 deletion mutant (sensitive)", "result": 0.017}, {"measurement": "Fold Change in abundance relative to solvent control", "setting": "[1]; PHO2 deletion mutant (resistant)", "result": 5.974}, {"measurement": "Fold Change in abundance relative to solvent control", "setting": "[1]; PHO84 deletion mutant (resistant)", "result": 2.986}, {"measurement": "Fold Change in abundance relative to solvent control", "setting": "[1]; PRE9 deletion mutant (resistant)", "result": 5.995}, {"measurement": "Fold Change in abundance relative to solvent control", "setting": "[1]; TRP4 deletion mutant (sensitive)", "result": 0.136}, {"measurement": "Fold Change in abundance relative to solvent control", "setting": "[1]; UME6 deletion mutant (resistant)", "result": 10.979}, {"measurement": "Fold Change in abundance relative to solvent control", "setting": "[1]; VPS38 deletion mutant (sensitive)", "result": 0.087}, {"measurement": "Fold Change in abundance relative to solvent control", "setting": "[1]; YMR010W deletion mutant (sensitive)", "result": 0.122}, {"measurement": "Fold Change in abundance relative to solvent control", "setting": "[1]; YOL162W deletion mutant (sensitive)", "result": 0.145}, {"measurement": "Fold Change in abundance relative to solvent control", "setting": "[1]; YPL205C deletion mutant (resistant)", "result": 4.953}, {"measurement": "Fold Change in abundance relative to solvent control", "setting": "[1]; YPR089W deletion mutant (sensitive)", "result": 0.110}, {"measurement": "Fold Change in abundance relative to solvent control", "setting": "[1]; YPT7 deletion mutant (sensitive)", "result": 0.016}, {"measurement": "bioavailability at 30 min", "setting": "[2]; after 30 mins", "result": 10.9, "unit": "%"}, {"measurement": "bioavailability at 1 h", "setting": "[2]; after 1 h", "result": 29.3, "unit": "%"}]}
